Experimental data from patent publication US7799565B2, “Lipid encapsulated interfering RNA” (Protiva Biotherapeutics, Inc., priority 2004, dated 2010).

Experiments:
luciferase = experiment: In vitro silencing of luciferase in stably transfected Neuro2A cells; type: cell-based; conditions: 48 hours; for luciferase expression relative to untreated control: cationic lipid incorporated in SNALP with anti-luciferase siRNA
Experimental: In vitro Transfection: Cells were cultured in MEM (Invitrogen) containing 10% fetal bovine serum (FBS) (CanSera) and 0.25 mg/mL G418 (Invitrogen). Neuro2A-G cells (Neuro2A cells stably transfected to express luciferase [R. E. Kingston. in Current Protocols in Molecular Biology, Vol. 2, pp. 9.1.4-9.1.9, John Wiley & Sons, Inc. (1997)]) were plated at a concentration of 4×10^4 cells per well in 24-well plates and grown overnight. Cells were treated with SNALP at doses of 0.0625-1.0 μg/mL nucleic acid (AntiLuc Active or Mismatch Control) and incubated for 48 hours at 37° C. and 5% CO2. Cells were then washed with PBS and lysed with 200 μL 250 mM sodium phosphate containing 0.1% Triton X-100. The luciferase activity for each well was determined using Luciferase Reagent (Promega) and a standard luciferase protein (Roche). The luminescence for each was measured using a Berthold MicroLumatPlus LB96V plate luminometer. The resulting luciferase activity was then normalized for the amount of protein using the Micro BCA assay kit (Pierce). Luciferase knockdown relative to a control was then determined for each system.
This example describes experiments comparing expression of nucleic acids following in vitro transfection of Neuro2A cells with SNALP comprising: (1) DODAC, DODMA, or DLinDMA; (2) PEG-C-DMA; and (3) an siRNA duplex directed against luciferase encapsulated in the SNALP (i.e., siRNA comprising the following sequence: […] and targeting the DNA sequence complementary to: […]). Neuro2A cells were stably transfected with a plasmid encoding luciferase under the control of the CMV promoter (pLO55). The stably transfected cells were then transfected with SNALP comprising: 15, 20, 25, 30, 35, or 40% of DODAC, DODMA, or DLinDMA; 2% PEG-C-DMA, and an siRNA duplex directed against luciferase encapsulated in the SNALP. Luciferase protein expression was measured 48 hours after transfection with SNALP.
The ability of SNALP containing each of the four cationic lipids (i.e., DSDMA, DODMA, DLinDMA, and DLenDMA) to effect gene silencing in stably transfected Neuro2A cells was evaluated. Neuro2A cells stably transfected to express the luciferase were treated with SNALP containing anti-luciferase siRNA for 48 hours. Gene-silencing efficiency was evaluated by comparing the remaining luciferase activity in these cells to that remaining in cells treated with control SNALP containing mismatch siRNA.

[1] = 31P-NMR phase transition of cationic lipid / DPPS vesicles; type: physicochemical; conditions: series DSDMA, DODMA, DLinDMA, DLenDMA
Experimental: ^31P Nuclear Magnetic Resonance Spectroscopy: Multilamellar vesicles (MLV) were prepared comprising DPPS and cationic lipid at a molar ratio of 1:1. This was accomplished by drying the lipids from chloroform solution, transferring to 10 mm NMR tubes, and hydrating in 1.5 mL of 10 mM sodium citrate, pH 4. Free induction decays (FIDs) corresponding to 1000 scans were obtained with a 3.0 μs, 60 o pulse with a 1 s interpulse delay and a spectral width of 25000 Hz. A gated two-level proton decoupling was used to ensure sufficient decoupling with minimum sample heating. An exponential multiplication corresponding to 50 Hz of line broadening was applied to the FIDs prior to Fourier transformation. The sample temperature (+/−1° C.) was regulated using a Bruker B-VT1000 variable temperature unit. Chemical shifts were referenced to 85% phosphoric acid as an external standard.

[2] = SNALP with anti-luciferase siRNA, versus control SNALP containing mismatch siRNA

With CCCCC/C=C\C/C=C\CCCCCCCCOCC(CN(C)C)OCCCCCCCC/C=C\C/C=C\CCCCC (stereo not shown) [DLinDMA, 1,2-DiLinoleyloxy-N,N-dimethylaminopropane] the “knockdown in gene expression” value (luciferase; [2]) was 80%, the “luciferase expression relative to untreated control” value (luciferase) was 21% and the phase transition temperature [1] was “lowest phase transition temperature in the series”.
With CCCCCCCCCCCCCCCCCC[N+](C)(C)CCCCCCCCCCCCCCCCCC [DSDMA, Distearyldimethylammonium, reference compound] the gene-silencing activity (luciferase; [2]) was “no activity”.
For CC/C=C\C/C=C\C/C=C\CCCCCCCCOCC(CN(C)C)OCCCCCCCC/C=C\C/C=C\C/C=C\CC (stereo not shown) [DLenDMA, 1,2-Dilinolenyloxy-N,N-dimethylaminopropane], the gene-silencing activity (luciferase; [2]) was “slightly less efficient than those containing DLinDMA” and the “luciferase expression relative to untreated control” value (luciferase) was 32%.
With CCCCCCCCCCCCCCCCCC[N+](C)(C)CCCCCCCCCCCCCCCCCC [DODMA, dioctadecyldimethylammonium, reference compound] the “luciferase expression relative to untreated control” value (luciferase) was 54%.
